According to patent publication US10759767B2 (priority 2012, dated 2020):

Assays:
[1] = test system: Septoria tritici; experiment: Microtest: activity against leaf blotch on wheat caused by Septoria tritici (Septtr); format: cell-based; details: solo product
[2] = test system: Alternaria solani; experiment: Microtest: activity against early blight caused by Alternaria solani (Alteso); format: cell-based
[3] = test system: Leptosphaeria nodorum; experiment: Microtest: activity against wheat leaf spots caused by Leptosphaeria nodorum (Leptno); format: cell-based
[4] = test system: Pyricularia oryzae; experiment: microbe, parasite or virus in culture; format: cell-based; details: Pyricularia oryzae, 168 h, read-out: Observed efficacy
[5] = test system: Botrytis cinerea; experiment: Microtest: activity against the grey mold Botrytis cinerea (Botrci); format: cell-based
[6] = test system: Phytophthora infestans; experiment: microbe, parasite or virus in culture; format: cell-based; details: for Observed efficacy: solo product
[7] = second Septtr microtest, 0.016 ppm
[8] = second Septtr microtest, 16 ppm

For `COC(=O)N(OC)c1ccccc1COc1ccn(-c2ccc(Cl)cc2)n1` [II-66, pyraclostrobin, reference compound], the Observed efficacy ([1]; second Septtr microtest, 0.004 ppm) was 37%, the Observed efficacy ([1]; 0.001 ppm) was 12 and the Observed efficacy ([1]; 0.004 ppm) was 37. For the same molecule, the inhibition of growth at 0.016 ppm ([2]; Alternaria solani, 168 h, solo 0.016 ppm, read-out: Observed efficacy) was 18%, the Observed efficacy ([2]; solo 0.004 ppm) was 8 and the inhibition of growth at 0.016 ppm ([3]; Parastagonospora nodorum, 168 h, solo 0.016 ppm, read-out: Observed efficacy) was 24%. For the same molecule, the inhibition of growth at 0.001 ppm [4] was 5%.

In the case of `Fc1ccc([C@]2(Cn3cncn3)O[C@H]2c2ccccc2Cl)cc1` [Epoxiconazol], the Observed efficacy [1, 7] is reported as 16%, the Observed efficacy ([2]; solo 0.004 ppm) is reported as 5 and the Observed efficacy ([2]; solo 0.016 ppm) is reported as 8. It also gave an Observed efficacy ([5]; solo 0.016 ppm) of 11 and an Observed efficacy ([6]; 4 ppm) of 27.

`OC(Cc1ccccc1Cl)(Cn1nc[nH]c1=S)C1(Cl)CC1` (stereo not drawn) [Prothioconazol] showed an Observed efficacy [1, 7] of 17%, an Observed efficacy ([2]; solo 1 ppm) of 66 and an Observed efficacy ([5]; solo 1 ppm) of 36. The Observed efficacy ([5]; solo 4 ppm) was 72 and the Observed efficacy ([3]; solo 1 ppm) was 43.

Molecule `CC1(C)CCC(Cc2ccc(Cl)cc2)C1(O)Cn1cncn1` (stereo not drawn) [Metconazol] has an Observed efficacy [1, 7] of 24% and an Observed efficacy ([2]; solo 0.016 ppm) of 17.

With `CO/C=C(/C(=O)OC)c1ccccc1Oc1cc(Oc2ccccc2C#N)ncn1` [II-3, azoxystrobin, reference compound] the Observed efficacy ([2]; solo 0.004 ppm) was 6, the Observed efficacy ([2]; solo 0.016 ppm) was 14 and the Observed efficacy ([5]; solo 4 ppm) was 14. It also gave an Observed efficacy ([5]; solo 16 ppm) of 23.

Molecule `Cc1ccc(-c2c(Cl)nc(C#N)n2S(=O)(=O)N(C)C)cc1` [II-12, cyazofamid, reference compound] has an Observed efficacy [1, 8] of 40%, an Observed efficacy ([2]; solo 4 ppm) of 14 and an Observed efficacy ([2]; solo 16 ppm) of 35.

Molecule `Cc1ccc(C(C)NC(=O)[C@@H](NC(=O)OC(C)C)C(C)C)cc1` (stereo partly drawn) [II-51, iprovalicarb, reference compound] has an Observed efficacy ([2]; solo 4 ppm) of 1, an Observed efficacy ([2]; solo 16 ppm) of 2 and an Observed efficacy ([2]; solo 63 ppm) of 1. It also gave an Observed efficacy ([5]; solo 4 ppm) of 2, an Observed efficacy ([5]; solo 16 ppm) of 3 and an Observed efficacy ([5]; solo 63 ppm) of 6. It also gave an Observed efficacy ([3]; solo 16 ppm) of 19.

With `N#Cc1c[nH]cc1-c1cccc2c1OC(F)(F)O2` [II-34, fludioxonil, reference compound] the Observed efficacy ([2]; solo product, 0.016 ppm) was 13% and the Observed efficacy ([6]; 1 ppm) was 0%.

With `CCOC(=O)C1CC(=O)C(=C(O)C2CC2)C(=O)C1` (stereo not drawn) [II-3a, trinexapac-ethyl, reference compound] the Observed efficacy ([1]; second Septtr microtest, 4 ppm) was 13%, the Observed efficacy ([2]; solo 4 ppm) was 12 and the Observed efficacy ([2]; solo 16 ppm) was 27. The inhibition of growth at 63 ppm ([3]; Parastagonospora nodorum, 168 h, solo 63 ppm, read-out: Observed efficacy) was 17%.

With `CO/N=C(/C1=NOCCO1)c1ccccc1Oc1ncnc(Oc2ccccc2Cl)c1F` [II-37, fluoxastrobin, reference compound] the Observed efficacy ([2]; solo 0.016 ppm) was 11.

With `CC1COC(Cn2cncn2)(c2ccc(Oc3ccc(Cl)cc3)cc2Cl)O1` (stereo not drawn) [Difenoconazol] the Observed efficacy [1, 7] was 26%, the Observed efficacy ([2]; solo 0.004 ppm) was 5 and the Observed efficacy ([2]; solo 0.016 ppm) was 5. It also gave an Observed efficacy ([3]; solo 0.016 ppm) of 29 and an Observed efficacy ([6]; 4 ppm) of 30.

`OC(Cn1cncn1)(c1ccc(Oc2ccc(Cl)cc2)cc1Cl)C1CC1` (stereo not drawn) showed a melting point of 110 °C.

`CC#CC(O)(Cn1cncn1)c1ccc(Oc2ccc(Cl)cc2)cc1C(F)(F)F` (stereo not drawn) gave a melting point of 137 °C.

In the case of `COC(=O)Nc1nc2ccccc2[nH]1` [II-8, carbendazim, reference compound], the Observed efficacy [1, 8] is reported as 16%, the Observed efficacy ([2]; solo 4 ppm) is reported as 7 and the Observed efficacy ([2]; solo 16 ppm) is reported as 10. It also gave an Observed efficacy ([2]; solo 63 ppm) of 34 and an inhibition of growth at 4 ppm ([6]; Phytophthora infestans, 168 h, read-out: Observed efficacy) of 24%.

`CCN(Cc1ccc(Cl)nc1)/C(=C/[N+](=O)[O-])NC` [Nitenpyram] gave an Observed efficacy ([1]; second Septtr microtest, 63 ppm) of 10%, an Observed efficacy ([2]; solo 4 ppm) of 2 and an Observed efficacy ([2]; solo 16 ppm) of 2. The Observed efficacy ([2]; solo 63 ppm) was 8 and the Observed efficacy ([3]; solo 63 ppm) was 23.
